According to article PMC5803267, “A small molecule inhibitor of Rheb selectively targets mTORC1 signaling” (Nature Communications, 2018):

Test system: pS6K1 in MCF-7 cells
Assay: Insulin-stimulated mTORC1 signaling Western blot in MCF-7 cells
Format: cell-based, human
Conditions: MCF-7, 10 µM NR1
Excerpt: We next evaluated the activity of NR1 in cell culture. Selective inhibition of mTORC1 in cells produces a specific signaling signature characterized by a reduction in phosphorylation of the mTORC1 substrates S6K1 and 4E-BP1 and increase in phosphorylation of AKT, catalyzed by mTORC2. This distinctive profile reflects the relief of a feedback loop where active S6K1 directly phosphorylates IRS1, resulting in the degradation of IRS1 and subsequent reduction of growth factor signaling from RTKs to downstream effectors such as AKT[1]. Conversely, reduction in ^T389pS6K1 is expected to lead to an increase in ^S473pAKT levels. We used AlphaLISA assays to detect ^T389pS6K1 and ^S473pAKT in MCF-7 cells. During the development of the assays, we noticed that ^T389pS6K1 was more responsive to our compound series than ^T37/46p4E-BP1, which may be due to differences in mTORC1 substrate classes in a cellular setting. […]
MCF-7 cells were serum-starved for 16 h and treated with compound for 90 min before cell lysis and Western blot analysis. […] For EGF-stimulated cells, 100 ng mL^−1 EGF was added 10 min before cell lysis. c Rap1 activity was detected in lysates loaded in vitro with either GDP or GTPγS and treated with NR1 at the indicated concentrations. […] Bound Rap1 was detected by Western blot. d Evaluation of NR1 in a LAM patient-derived cell line (TRI102) under replete and serum-starved conditions. […]

CN(C)C(=O)c1ccc(Cn2c(C(=O)O)cc3c(Br)cc(Sc4ccc(Cl)c(Cl)c4)cc32)cc1 [NR1, 4-bromo-6-(3,4-dichlorophenylthio)-1-(4-(dimethylcarbamoyl)benzyl)-1H-indole-2-carboxylic acid]
S6K1 phosphorylation compared with rapamycin: does not inhibit S6K1 phosphorylation as well as 100 nM rapamycin
